A short description of this data set: photoluminescence quantum yield (fraction); solvent given as SMILES.

For `c1ccc2c(c1)Sc1ccc(-n3c4ccccc4c4ccccc43)cc1S2`, the photoluminescence quantum yield runs as follows: (in CC1CCCCC1) 0.04; (in c1cc(-c2cccc(-n3c4ccccc4c4ccccc43)c2)cc(-n2c3ccccc3c3ccccc32)c1) 0.1.

`Clc1ccc(-c2cccc3ncc(-c4ccccc4)n23)cc1`: for the setting “in ClCCl”, the photoluminescence quantum yield was 0.42.

As for `[O-][n+]1c(/C=C/c2ccccc2)nc(Nc2ccccc2)c2c1CCCC2`, the photoluminescence quantum yield (in ClCCl) came to 0.16.

For the compound `CN(c1ccccc1)c1ccc(/C=C2\C(=O)c3ccccc3S2(=O)=O)cc1`, the photoluminescence quantum yield worked out at 0.003 (in C1CCOC1); 0.012 (in C1COCCO1); 0.002 (in CC#N); 0.001 (in CC(C)=O); 0.003 (in CCOC(C)=O); 0.003 (in CN(C)C=O). The photoluminescence quantum yield is, setting by setting: (in CO) 0.012; (in CS(C)=O) 0.018; (in Cc1ccccc1) 0.103; (in ClC(Cl)Cl) 0.008; (in ClCCl) 0.004.

Compound `C=Cc1ccc(-c2ccc(-c3nnc(-c4ccc(-c5nnc(-c6ccc(-c7ccc(C=C)cc7)s6)o5)cc4)o3)s2)cc1` had a photoluminescence quantum yield (in ClC(Cl)Cl) of 0.62.

Regarding `CCC1=C(C)C2=Cc3cscc3B(O)N2C1=O`, the photoluminescence quantum yield is 0.97 (in CC#N); 0.18 (in CCCCCC); 0.35 (in CO); 0.87 (in CS(C)=O); 0.2 (in ClC(Cl)Cl).

Regarding `C(=C\c1cnc2ccccc2n1)/c1ccc(N(c2ccccc2)c2ccccc2)cc1`, where the note is “in ClCCl”, the photoluminescence quantum yield came out at 0.67.

As for `COc1ccc(-c2c3cc4cc(C)sc4cc3c(-c3ccc(OC)cc3)c3cc4cc(C)sc4cc23)cc1`, where the note is “in ClCCl”, the photoluminescence quantum yield worked out at 0.61.

Where the note is “in ClCCl”, `COc1cc(OC)cc(C2=CC(c3ccccc3)=C(c3ccccc3)C2)c1` returned a photoluminescence quantum yield of 0.0361.

Consider `Cc1ccc(-c2nc(-c3ccccc3O)[nH]c2-c2ccc(C)cc2)cc1`, for which the photoluminescence quantum yield (in CO) amounted to 0.28.

In turn, `Cc1cc2c3ccccc3sc2c2[nH]c3ccccc3c12` yielded a photoluminescence quantum yield (in ClCCl) of 0.058.

In the case of `F[B-]1(F)OC(c2ccccc2)=C(c2ccccc2)c2oc3ccccc3[n+]21`, under “in C1CCOC1”, the photoluminescence quantum yield was 0.013.

On to `CCN(CC)c1ccc2cc(-c3nc4c5ccccc5c5ccccc5c4n3-c3ccc(C(C)(C)C)cc3)c(=O)oc2c1`, for which, where the note is “in ClCCl”, the photoluminescence quantum yield came out at 0.97.

Regarding `CCCCCCOc1cc(C=O)c(OCCCCCC)cc1C=O`, the photoluminescence quantum yield (in ClCCl) was 0.208.

With `F[B-]1(F)n2c(-c3ccccc3)cc(-c3cccs3)c2N=C2C(c3cccs3)=CC(c3ccccc3)=[N+]21`, the photoluminescence quantum yield (in ClCCl) stood at 0.1.

As to `C=Cc1cc(OC)cc(OC)c1`, the photoluminescence quantum yield by setting is: (in C1CCCCC1) 0.12; (in CC#N) 0.5.

Where the note is “in ClCCl”, `CCOCCOCCOC(=O)/C=C/C1=CC2=C(c3c(C)cc(C)cc3C)c3cc(/C=C/C(=O)OCCOCCOCC)cn3[B-](F)(F)[N+]2=C1` returned a photoluminescence quantum yield of 0.34.

With `Cc1ccc(C2=C3C=CC=[N+]3[B-](F)(F)n3cccc32)cc1`, the photoluminescence quantum yield runs as follows: (in C1CCCCC1) 0.036; (in CC#N) 0.018; (in CCO) 0.025; (in CCOC(C)=O) 0.024; (in CO) 0.018; (in OCC(F)(F)F) 0.031.

With `CC(C)(C)c1ccc2c(c1)c1cc(C(C)(C)C)ccc1n2-c1ccc(C#Cc2ccc(C=O)cc2)cc1`, the photoluminescence quantum yield (in ClCCl) came out at 0.1.

Turning to `CNCCCC1c2ccccc2C=Cc2ccccc21`, the photoluminescence quantum yield by setting is: (in CC#N) 0.56; (in CO) 0.55; (in O) 0.62.

Turning to `CC1(C)c2ccccc2-n2c(-c3ccc(N4c5ccccc5Sc5ccccc54)cc3)nc3cccc1c32`, the photoluminescence quantum yield is, setting by setting: (in Cc1ccccc1) 0.08; (in O=P(c1ccccc1)(c1ccccc1)c1ccccc1Oc1ccccc1P(=O)(c1ccccc1)c1ccccc1) 0.05.

In the case of `CCOC(=O)c1ccc2c(c1)[nH]c1c3ccc(C(=O)OCC)cc3[nH]c21`, the photoluminescence quantum yield (in CCCO) amounted to 0.57.

`N#Cc1c(-n2nnc3c2-c2ccccc2CN(C(=O)CCN)c2ccccc2-3)n([C@H]2C[C@H](O)[C@@H](CO)O2)c2ncnc(N)c12` displayed a photoluminescence quantum yield (in CO) of 0.005.

For the compound `CCCCCCN1C(=O)c2cccc3c(-c4ccc(Cl)s4)ccc(c23)C1=O`, the photoluminescence quantum yield (in ClC(Cl)Cl) was determined as 0.18.

The compound `O=Cc1cc2c(cc3ccc4cccc5ccc2c3c45)[nH]1` showed a photoluminescence quantum yield (in CCOC(C)=O) of 0.61.

Turning to `CN(C)c1ccc2nc(-c3ccc(/C=N/c4ccccc4)cc3)sc2c1`, the photoluminescence quantum yield was found to be 0.057 (in C1CCCCC1), 0.72 (in CC#N), 0.067 (in CO) and 0.12 (in ClC(Cl)Cl).

Regarding `COc1ccc(-c2csc(-c3ccncc3)n2)cc1`, the photoluminescence quantum yield runs as follows: (in CC#N) 0.002; (in CCO) 0.22; (in CN(C)C=O) 0.158; (in CS(C)=O) 0.163; (in Cc1ccccc1) 0.037; (in ClCCl) 0.089.

As for `CC1=CC(C)=[N+]2C1=C(c1ccc(-c3ccc(OS(=O)(=O)c4ccc([N+](=O)[O-])cc4[N+](=O)[O-])cc3)s1)c1c(C)cc(C)n1[B-]2(F)F`, where the note is “in Cc1ccccc1”, the photoluminescence quantum yield was determined as 0.066.

Where the note is “in Cc1ccccc1”, `CCC1(CC)c2ccccc2-c2ccc(C#Cc3cc(C#Cc4ccc5c(c4)C(CC)(CC)c4ccccc4-5)c4ccc5c(C#Cc6ccc7c(c6)C(CC)(CC)c6ccccc6-7)cc(C#Cc6ccc7c(c6)C(CC)(CC)c6ccccc6-7)c6ccc3c4c65)cc21` yielded a photoluminescence quantum yield of 0.64.

Consider `CCC1(CC)c2cc(B(c3c(C)cc(C)cc3C)c3c(C)cc(C)cc3C)ccc2-c2c1c1c(c3c2C(CC)(CC)c2cc(N(c4ccccc4)c4ccccc4)ccc2-3)C(CC)(CC)c2cc(N(c3ccccc3)c3ccccc3)ccc2-1`, for which the photoluminescence quantum yield (in C1CCOC1) is 0.21.

Take `CC[N+]1(CC)CN2C(=N1)C(C(=O)O)=Cc1cc(Oc3ccccc3)ccc12`: the photoluminescence quantum yield (in O) amounted to 0.592.

Compound `CC(C)[Si](C#Cc1c2ccc(C(C)(C)C)cc2c(C#Cc2c3ccc(C(C)(C)C)cc3c(C#C[Si](C(C)C)(C(C)C)C(C)C)c3ccc(C(C)(C)C)cc23)c2ccc(C(C)(C)C)cc12)(C(C)C)C(C)C` registered a photoluminescence quantum yield (in Cc1ccccc1) of 0.02.

Take `Cc1cc(-c2nnc(-c3ccccc3)o2)ccc1-n1c2ccccc2c2ccccc21`: the photoluminescence quantum yield (in Cc1ccccc1) stood at 0.56.

`CCCCCCCCc1ccc(-n2c3c4ccccc4nnc3c3c2c2nnc4ccccc4c2n3-c2ccc(CCCCCCCC)cc2)cc1` returned a photoluminescence quantum yield (in Cc1ccccc1) of 0.

Under “in CCO”, `Nc1cc2oc3cc(O)c(F)cc3c(=O)c2cc1F` yielded a photoluminescence quantum yield of 0.44.

Where the note is “in CC#N”, `CCOC(=O)c1c2c3c(ccc(F)c3c3cc4ccccc4cc13)N(C)C2=O` yielded a photoluminescence quantum yield of 0.41.

Take `F[B-]1(F)n2cccc2C(c2c3ccccc3c(-c3ccccc3)c3ccccc23)=C2C=CC=[N+]21`: the photoluminescence quantum yield is 0.001 (in CC#N); 0.002 (in CCO); 0.001 (in CN(C)C=O); 0.007 (in Cc1ccccc1); 0.002 (in ClCCl).

For the setting “in ClC(Cl)Cl”, `F[B-]1(F)OC(c2cccc(Br)c2)=Cc2c3ccccc3c3ccccc3[n+]21` gave a photoluminescence quantum yield of 0.106.

Take `CCCCCCCCCCCCCCCCOc1cc(C#Cc2ccc3ccccc3c2)c(OCCCCCCCCCCCCCCCC)cc1C#Cc1ccc(C=C(C#N)C#N)cc1`: the photoluminescence quantum yield (in Brc1ccccc1) is 0.43; the photoluminescence quantum yield (in C1CCCCC1) worked out at 0.9; the photoluminescence quantum yield (in C1CCOC1) is 0.5; the photoluminescence quantum yield (in C1COCCO1) is 0.5; the photoluminescence quantum yield (in CCCCCC) came to 0.87; the photoluminescence quantum yield (in CCCCCCCCO) is 0.35. The photoluminescence quantum yield came out at 0.81 (in CCCCOCCCC); 0.23 (in CCOC(C)=O); 0.79 (in CCOCC); 0.82 (in Cc1ccccc1); 0.81 (in ClC(Cl)(Cl)Cl); 0.78 (in ClC(Cl)Cl). This compound showed a photoluminescence quantum yield (in ClCCl) of 0.19.

Take `CCC1(CC)c2cc(C=O)ccc2-c2ccc(N(C)C)cc21`: the photoluminescence quantum yield amounted to 0.02 (in C1CCCCC1); 0.81 (in CC#N); 0.64 (in CCO); 0.71 (in CCOCC); 0.92 (in CS(C)=O); 0.91 (in ClCCl). Further, the photoluminescence quantum yield (in c1ccccc1) turned out to be 0.82.

In turn, `c1ccc2c(c1)c1ccccc1c1[nH]c(-c3ccc(-c4nc5c6ccccc6c6ccccc6c5[nH]4)cc3)nc21` displayed a photoluminescence quantum yield (in C1CCOC1) of 0.79; a photoluminescence quantum yield (in CC#N) of 0.76; a photoluminescence quantum yield (in CCO) of 0.77; a photoluminescence quantum yield (in CS(C)=O) of 0.78; a photoluminescence quantum yield (in ClCCl) of 0.76.

In the case of `CCc1c(C)c2n(c1C)[B-](F)(F)[N+]1=C(NCc3ccc(OC)cc3)C(SC#N)=CC1=C2C`, the photoluminescence quantum yield by setting is: (in CC#N) 0.83; (in CCCCCC) 0.91; (in CCOC(C)=O) 0.9; (in CO) 0.85; (in ClCCl) 0.93.

In the case of `Cc1ccc2c(c1)c1cc(C)ccc1n2-c1c(C#N)c(-n2c3ccc(C)cc3c3cc(C)ccc32)c(-n2c3ccc(C)cc3c3cc(C)ccc32)c(C#N)c1-n1c2ccc(C)cc2c2cc(C)ccc21`, under “in Cc1ccccc1”, the photoluminescence quantum yield was 0.474.

`COc1ccc(N(c2ccccc2)c2ccc(OC)cc2)cc1` had a photoluminescence quantum yield (in Cc1ccccc1) of 0.03.

Turning to `COCCOCCOCCN1C(=O)c2cc(NCCOCCO)c3c4c(cc(NCCOCCO)c(c24)C1=O)C(=O)N(CCOCCOCCOC)C3=O`, the photoluminescence quantum yield by setting is: (in CO) 0.37; (in ClC(Cl)Cl) 0.56; (in O) 0.031.

As for `CN1C(=O)/C(=C/c2ccncc2)N=C1/C=C/c1ccncc1`, the photoluminescence quantum yield is 0.048 (in C1COCCO1); 0.033 (in CC#N); 0.028 (in CCO); 0.041 (in CCOC(C)=O); 0.013 (in O).

The record behind these values is the Deep4Chem optical property database.
